Where two headings read alike, the source gives them in different places.
Legend:
[1] = system: red beet plants (Monty Rz and Belushi Rz); experiment: Field trial with several harvests: betalain accumulation during root growth after foliar spraying with egc; assay type: in vivo, red beet (Beta vulgaris L. spp. vulgaris); details: for Bn content at peak: 9 weeks after sowing as printed; for Betalains (mg kg^−1 FW) Bn / Betalains (mg kg^−1 FW) Vx / Bn:Vx: egc 360 g ha^−1
Protocol: (§1) Field trials were conducted at the Hoejbakkegaard (latitude 55, […]; Denmark) in 2015, where three-row plots were arranged in randomized block designs with three replicates. Rainfall was complemented by irrigation throughout red beet growth to avoid water stress. Foliar applications of an ethylene generating compound (egc), 2-chloroethylphosphonic acid (CERONE® brand ETHEPHON, 39.9% active ingredient, Bayer Crop Science, Leverkusen, Germany), at a concentration of 360 g ha^−1 were performed with a CO2 backpack spaced 50 cm apart, using manual spraying equipment designed for agricultural use. Egc application began 5 weeks after sowing and continued every 3 weeks, with a total of five applications. Plants were cultivated in loamy soil using techniques recommended for cultivation and plant protection in red beet crop production.
Trial 2. Plots consisted of 12 m-long rows, with several harvests from separate row segments performed during growth (3, 6, 9, 12, 15 and 18 weeks after sowing). For further analyses, biological replicates consisted of 20 whole beetroots harvested per plot.
(§2) Biological replicates consisting of twenty beetroots were washed and split lengthwise. Of these, one pool of halves was ground and homogenized in a 3% sulfuric acid solution (1/1, w/w), using a Waring® two-speed commercial blender (VWR—Bie & Berntsen, Herlev, Denmark). The resulting fine homogenate was subsequently mixed with demineralized water (1/2, w/w) and vortexed. Finally, the sample was centrifuged for 20 min at 4500 rpm, and the supernatant (extract) was utilized for further analyses.
Bn and Vx were measured spectrophotometrically. The beetroot extract was diluted to a proper concentration in 33 mM KH2PO4 (pH 6.5), and the absorption was measured at 476 nm and 538 nm for Bn and Vx, respectively, using a UV-visible spectrophotometer (Thermo Scientific Evolution™ 220, Waltham, Mass., USA). Bn and Vx concentrations were expressed in mg kg^−1 fresh weight (FW), using the corresponding absorbance, molecular weight and extinction coefficient for Bn and Vx. […]

beet root = details: 50 ppm; cited from earlier work
A. Mangostanus seedlings = details: cited from earlier work
[2] = system: red beet plants (Monty Rz and Belushi Rz); experiment: Field trials harvested at a single time-point: foliar spraying of red beet plants with egc, betalain pigments and yield data of roots; assay type: in vivo, red beet (Beta vulgaris L. spp. vulgaris); details: for Betalains (g kg^−1 DM) / Betalains (mg kg^−1 FW) Bn / Betalains (mg kg^−1 FW) Vx / Betalains:TSS / Bn:Vx: egc 360 g ha^−1 foliar, roots 16 weeks after sowing
Protocol: as §1
Trial 1. Plants were grown in plots consisted of 4.5 m-long rows, with a single harvest from the middle part of each row performed 16 weeks after sowing.
as §2
Bn and Vx were measured spectrophotometrically. The beetroot extract was diluted to a proper concentration in 33 mM KH2PO4 (pH 6.5), and the absorption was measured at 476 nm and 538 nm for Bn and Vx, respectively, using a UV-visible spectrophotometer (Thermo Scientific Evolution™ 220, Waltham, Mass., USA). Bn and Vx concentrations were expressed in mg kg^−1 fresh weight (FW), using the corresponding absorbance, molecular weight and extinction coefficient for Bn and Vx.
TSS was measured with a manual refractometer (Refracto 30PX/GS Mettler-Toledo Inc., OH, USA) operating in the 0% to 85% Brix range. The beetroot extract was filtered through 0.45 μm membrane filters, and Brix measurements were performed using 1 mL of the filtrate.
DM was determined after samples were dried to a constant weight at 100° C. for 24 h, based on the difference in mass between the fresh and dry samples. […] was then expressed as a percentage of the dry matter.

[3] = Belushi Rz, 3 weeks after sowing
[4] = Belushi Rz, 6 weeks after sowing
[5] = Belushi Rz, 9 weeks after sowing
[6] = Belushi Rz, 12 weeks after sowing
[7] = Belushi Rz, 15 weeks after sowing
[8] = Belushi Rz, 18 weeks after sowing
[9] = Monty Rz, 12 weeks after sowing
[10] = Monty Rz, 15 weeks after sowing
[11] = Monty Rz, 18 weeks after sowing

## O=P(O)(O)CCCl [egc, 2-chloroethylphosphonic acid]
[1]; Belushi Rz
  Bn:Vx higher in egc treated plants, average over all harvests: 35%
  higher Bn content than untreated, average of all harvests: 10%
  mean root Vx, less in average: 20%
  Bn content at peak: 2577 mg kg^−1 FW
[1]; [3]
  Betalains (mg kg^−1 FW) Bn: 945 mg kg^−1 FW
  Betalains (mg kg^−1 FW) Vx: 24.3 mg kg^−1 FW
  Bn:Vx: 39.0
[1]; [4]
  Betalains (mg kg^−1 FW) Bn: 2577 mg kg^−1 FW
  Betalains (mg kg^−1 FW) Vx: 58.4 mg kg^−1 FW
  Bn:Vx: 45.7
[1]; [5]
  Betalains (mg kg^−1 FW) Bn: 2144 mg kg^−1 FW
  Betalains (mg kg^−1 FW) Vx: 128 mg kg^−1 FW
  Bn:Vx: 17.2
[1]; [6]
  Betalains (mg kg^−1 FW) Bn: 1683 mg kg^−1 FW
  Betalains (mg kg^−1 FW) Vx: 157 mg kg^−1 FW
  Bn:Vx: 11.1
[1]; [7]
  Betalains (mg kg^−1 FW) Bn: 1442 mg kg^−1 FW
  Betalains (mg kg^−1 FW) Vx: 211 mg kg^−1 FW
  Bn:Vx: 6.84
[1]; [8]
  Betalains (mg kg^−1 FW) Bn: 1369 mg kg^−1 FW
  Betalains (mg kg^−1 FW) Vx: 286 mg kg^−1 FW
  Bn:Vx: 4.85
[1]; Monty Rz
  Bn:Vx higher in egc treated plants, average over all harvests: 17%
  higher Bn content than untreated, average of all harvests: 17%
  mean root Vx, less in average: 5%
  Bn content at peak: 2867 mg kg^−1 FW
[1]; Monty Rz, 3 weeks after sowing
  Betalains (mg kg^−1 FW) Bn: 1343 mg kg^−1 FW
  Betalains (mg kg^−1 FW) Vx: 32.3 mg kg^−1 FW
  Bn:Vx: 41.6
[1]; Monty Rz, 6 weeks after sowing
  Betalains (mg kg^−1 FW) Bn: 2867 mg kg^−1 FW
  Betalains (mg kg^−1 FW) Vx: 62.3 mg kg^−1 FW
  Bn:Vx: 46.5
[1]; Monty Rz, 9 weeks after sowing
  Betalains (mg kg^−1 FW) Bn: 2685 mg kg^−1 FW
  Betalains (mg kg^−1 FW) Vx: 180 mg kg^−1 FW
  Bn:Vx: 14.9
[1]; [9]
  Betalains (mg kg^−1 FW) Bn: 2475 mg kg^−1 FW
  Betalains (mg kg^−1 FW) Vx: 239 mg kg^−1 FW
  Bn:Vx: 10.5
[1]; [10]
  Betalains (mg kg^−1 FW) Bn: 2274 mg kg^−1 FW
  Betalains (mg kg^−1 FW) Vx: 304 mg kg^−1 FW
  Bn:Vx: 7.56
[1]; [11]
  Betalains (mg kg^−1 FW) Bn: 2219 mg kg^−1 FW
  Betalains (mg kg^−1 FW) Vx: 455 mg kg^−1 FW
  Bn:Vx: 4.89
[1]; both cultivars, 6 weeks after sowing
  highest Bn:Vx: 46
[1]; both cultivars, at each harvest point, 360 g egc ha−1
  root mass and diameter, untreated versus treated red beets: no significant differences
Beet root
  beta cyanin efflux: promoted
A. Mangostanus seedlings; 0.1 mM
  pigment accumulation in seedlings: did not elicit pigment accumulation
A. Mangostanus seedlings; 1 mM
  pigment accumulation in seedlings: did not elicit pigment accumulation
A. Mangostanus seedlings; 5 mM
  pigment accumulation in seedlings: seemed to have an effect
[2]; 16-week-old plants
  Vx content of roots, untreated versus treated plants: did not vary significantly
[2]; Belushi Rz
  increase of Bn:Vx compared with untreated plants: 36%
  increase of betalains:TSS in average: 30%
  increase of root Bn content compared with untreated plants, in average: 20%
[2]; Belushi Rz, egc treated beetroots
  mean Bn:Vx: 6.1
[2]; Field trial 1, Belushi Rz
  Betalains (g kg^−1 DM): 17.4 g kg^−1 DM
  Betalains (mg kg^−1 FW) Bn: 1575 mg kg^−1 FW
  Betalains (mg kg^−1 FW) Vx: 274 mg kg^−1 FW
  Betalains:TSS: 0.126
  Bn:Vx: 5.82
[2]; Field trial 1, Monty Rz
  Betalains (g kg^−1 DM): 21.9 g kg^−1 DM
  Betalains (mg kg^−1 FW) Bn: 2166 mg kg^−1 FW
  Betalains (mg kg^−1 FW) Vx: 386 mg kg^−1 FW
  Betalains:TSS: 0.154
  Bn:Vx: 5.79
[2]; Field trial 2, Belushi Rz
  Betalains (g kg^−1 DM): 15.0 g kg^−1 DM
  Betalains (mg kg^−1 FW) Bn: 1584 mg kg^−1 FW
  Betalains (mg kg^−1 FW) Vx: 247 mg kg^−1 FW
  Betalains:TSS: 0.088
  Bn:Vx: 6.42
[2]; Field trial 2, Monty Rz
  Betalains (g kg^−1 DM): 21.5 g kg^−1 DM
  Betalains (mg kg^−1 FW) Bn: 2458 mg kg^−1 FW
  Betalains (mg kg^−1 FW) Vx: 364 mg kg^−1 FW
  Betalains:TSS: 0.132
  Bn:Vx: 6.88
[2]; Monty Rz
  increase of Bn:Vx compared with untreated plants: 34%
  increase of betalains:TSS in average: 37%
  increase of root Bn content compared with untreated plants: 25%
[2]; Monty Rz, egc treated beetroots
  mean Bn:Vx: 6.3
[2]; both cultivars
  Bn:Vn upon ethephon treatment: increased substantially
  effect on beetroot yield in tons per hectare: no significant effects
  effect on root FW: no significant effects
[2]; both cultivars, 16-week-old plants
  Bn content of roots versus untreated plants: increased
[2]; egc treated beetroots
  DM (dry matter) of beetroots versus untreated roots: lower
  betalain content versus untreated roots: higher
  mean TSS versus untreated roots: lower
